The text below walks through data of publication PMC3629922 (ACS medicinal chemistry letters, 2013).

Experiment [1] concerns D2 receptor. The note with it: cited from earlier work.
The target in experiment [2] is T1, 5-HT2B receptor (Homo sapiens, UniProt P41595). In words: 5-HT2B functional assay using HTRF quantitation of IP1 accumulation. Type of experiment: cell-based.
Experiment [3] concerns the target T1, 5-HT2B receptor. Briefly: 5-HT2B functional antagonism against serotonin. It counts as cell-based.
Experiment [4] deals with D2 (Homo sapiens, UniProt P14416). Briefly: D2 functional assay. Type of experiment: cell-based. To be noted: performed at the PDSP.
Sequence of D2 (P14416 whole entry): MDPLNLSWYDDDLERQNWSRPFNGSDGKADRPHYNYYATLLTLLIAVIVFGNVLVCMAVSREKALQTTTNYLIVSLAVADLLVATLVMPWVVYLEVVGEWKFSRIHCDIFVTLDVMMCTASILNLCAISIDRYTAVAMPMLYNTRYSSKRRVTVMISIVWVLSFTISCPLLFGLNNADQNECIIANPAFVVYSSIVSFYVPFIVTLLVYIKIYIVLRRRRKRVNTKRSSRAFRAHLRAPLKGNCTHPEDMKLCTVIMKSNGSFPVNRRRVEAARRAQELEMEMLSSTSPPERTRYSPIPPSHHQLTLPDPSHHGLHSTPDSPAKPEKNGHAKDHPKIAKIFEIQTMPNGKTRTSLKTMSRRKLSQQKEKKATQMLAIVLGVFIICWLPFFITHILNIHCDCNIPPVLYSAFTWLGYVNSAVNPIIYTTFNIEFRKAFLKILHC
The target of experiment [5] is T1, 5-HT2B receptor. In words: 5-HT2B functional assay, intracellular calcium mobilization. It counts as cell-based. The note with it: FLIPR Tetra, n = 5.
Experiment [6] addresses T2, D4 (Homo sapiens, UniProt P21917).
T2 sequence (P21917 1-419): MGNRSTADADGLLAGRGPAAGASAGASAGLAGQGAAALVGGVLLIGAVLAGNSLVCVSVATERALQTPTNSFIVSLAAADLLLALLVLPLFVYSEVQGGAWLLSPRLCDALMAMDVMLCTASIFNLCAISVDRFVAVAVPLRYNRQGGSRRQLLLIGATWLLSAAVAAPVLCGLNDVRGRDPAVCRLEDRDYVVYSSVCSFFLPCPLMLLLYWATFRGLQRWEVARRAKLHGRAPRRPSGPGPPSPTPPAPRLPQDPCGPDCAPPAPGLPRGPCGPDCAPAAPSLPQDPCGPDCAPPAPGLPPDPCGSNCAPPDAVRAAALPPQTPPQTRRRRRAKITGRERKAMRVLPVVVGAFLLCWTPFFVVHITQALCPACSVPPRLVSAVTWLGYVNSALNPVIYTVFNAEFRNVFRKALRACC
Briefly: D4 functional assay. It counts as cell-based. The note with it: performed at the PDSP.

Experiment [7] deals with T1, 5-HT2B receptor. The note with it: binding and functional assays; cited from earlier work.
Experiment [8] deals with 5-HT2B receptors in porcine pulmonary arteries. The note with it: cited from earlier work.

T1 sequence (P41595 whole entry): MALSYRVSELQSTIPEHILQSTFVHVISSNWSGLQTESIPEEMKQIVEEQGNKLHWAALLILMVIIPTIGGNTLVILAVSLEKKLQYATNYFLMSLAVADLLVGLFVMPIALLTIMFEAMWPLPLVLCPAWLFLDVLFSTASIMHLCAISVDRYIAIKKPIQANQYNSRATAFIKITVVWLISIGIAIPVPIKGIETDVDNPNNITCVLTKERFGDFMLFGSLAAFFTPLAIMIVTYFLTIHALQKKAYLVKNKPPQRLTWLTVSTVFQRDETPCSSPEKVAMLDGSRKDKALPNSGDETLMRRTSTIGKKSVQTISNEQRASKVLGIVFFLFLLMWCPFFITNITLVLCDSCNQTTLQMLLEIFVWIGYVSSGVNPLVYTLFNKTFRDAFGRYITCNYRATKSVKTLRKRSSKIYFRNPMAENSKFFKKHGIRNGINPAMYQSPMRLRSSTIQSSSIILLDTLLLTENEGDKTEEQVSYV

Consider `CSC[C@@H]1C[C@@H]2c3cccc4[nH]cc(c34)C[C@H]2N(C)C1` [6-methylpergolide], for which, in experiment [1], the “Functionality at the D2 receptor” value was “full agonists”.

On to `C=CCN1C[C@H](C(=O)N(CCCN2CCOCC2)C(=O)NCC)C[C@@H]2c3cccc4[nH]cc(c34)C[C@H]21` [Compound 1], for which the “Functionality at the 5-HT2B receptor (IP1 assay)” value (from here on “Functionality … (IP1 assay)”) in experiment [2] was “full agonists”.

With `CCNC(=O)N(CCCN(C)C)C(=O)[C@@H]1C[C@@H]2c3cccc4c3c(cn4C)C[C@H]2N(C)C1` [Compound 9, 1,6-Dimethylcabergoline], the “Antagonism against serotonin at the 5-HT2B receptor” value (from here on “Antagonism against serotonin”) in experiment [3] is reported as “potent antagonists”. For the same compound, the D2 functionality result in experiment [4] is “potent but partial D2 agonist”. Besides, in experiment [2], the “Functionality … (IP1 assay)” value is on record as “no agonism”. The “Functionality at the human 5-HT2B receptor (calcium mobilization assay)” value (shortened to “Functionality … (calcium mobilization assay)”) in experiment [5] was “no agonism”. In addition, the D4 functionality result in experiment [6] is “full D4 agonist”.

`CN(C)CCCNC(=O)[C@@H]1C[C@@H]2c3cccc4c3c(cn4C)C[C@H]2N(C)C1` [Compound 14]: in experiment [3], the “Antagonism against serotonin” value is given as “potent antagonists”. Moreover, the “Functionality … (IP1 assay)” value in experiment [2] was “minimal to no agonism”. Also, in experiment [5], the “Functionality … (calcium mobilization assay)” value was “minimal to no agonism”.

As to `COC(OC)[C@@H]1C[C@@H]2c3cccc4c3c(cn4C)C[C@H]2N(C)C1` [Compound 15], the “Antagonism against serotonin” value in experiment [3] is reported as “potent antagonists”. In addition, in experiment [2], the “Functionality … (IP1 assay)” value is on record as “no agonism”. For the same compound, the “Functionality … (calcium mobilization assay)” value in experiment [5] was “no agonism”.

With `C=CCN1C[C@H](C(=O)N(CCCN(C)C)C(=O)NCC)C[C@@H]2c3cccc4[nH]cc(c34)C[C@H]21` [cabergoline, reference compound], the “Functionality … (IP1 assay)” value in experiment [2] is listed as “full agonists”.

For `CC[C@@H](CO)NC(=O)[C@@H]1C=C2c3cccc4[nH]cc(c34)C[C@H]2N(C)C1` [methylergonovine], the “Activity at the 5-HT2B receptor” value in experiment [7] is “partial agonist”.

In the case of `CC[C@@H](CO)NC(=O)[C@@H]1C=C2c3cccc4c3c(cn4C)C[C@H]2N(C)C1` [methysergide], in experiment [7], the “Activity at the 5-HT2B receptor” value is given as “significantly weaker activity”.

Take `CCCN1C[C@H](CSC)C[C@@H]2c3cccc4[nH]cc(c34)C[C@H]21` [pergolide]: the “Functionality at the D2 receptor” value in experiment [1] was “full agonists”. For the same compound, in experiment [8], the “Functionality at 5-HT2B receptors in porcine pulmonary arteries” value is recorded as “functional agonist”.
